Broadly, the IC50 is the concentration at which inhibition is half-maximal.

The subject of one assay is Colo357-FG. Put plainly: MTS cytotoxicity assay, 72 hours drug exposure, Colo357-FG pancreatic cancer cells. The note with it: Homo sapiens, COLO 357/FG, final DMSO 0.5%. It is filed as cell-based. How it is done:
(§1) In the first set of assays, IC50 values were determined for each compound after 72 hours of drug exposure in each of the tumor cell lines. Cell lines tested include D54, U87, Panc-1, AsPc-1, Colo357-FG, L3.6, H226, H352, H441 cell lines.
COLO 357 FG is continuous human cell line, COLO 357, with exceptional characteristics was derived from a metastasis of a pancreatic adenocarcinoma. COLO 357 grew as an adhering monolayer with a cell doubling time of 21 h and grew with 10% clonal efficiency in soft agar. COLO 357 cells had numerous lamellar inclusions. The cells elaborated the pancreatic enzymes trypsin, elastase and chymotrypsin. COLO 357 also secreted appreciable amounts of carcinoembryonic antigen and human chorionic gonadotropin. […] Nine nucleolar organizing regions were found by silver-stained metaphase preparations. COLO 357 has been “fingerprinted” for seven allelic isozymes.
(§2) All cell lines were maintained in respective growth media at 37° C., 5% CO2 and 98% humidity. Cells were treated with the compounds and all drug concentrations were diluted so that the final concentration of DMSO is 0.5%. The cytotoxic effect was measured by the MTS Assay (Tetrazolium), which is a colorimetric method for determining the number of viable cells. After the 72 hours of incubation with drug, Promega's MTS reagent were added to the cells according to manufacturer's instructions and incubated for 2 hours. The plates were read at 490 nm and the resulting data graphed with GraphPad Prism 5 software.
(§3) IC50 was calculated, which is approximate equivalent of IG50 (concentration at which 50% growth inhibition is measured). The IC50 values represent […] of the drug concentration.
(Formazan colour is commonly taken as a measure of viable cells.)

The test system of a further assay is U87. The assay can be described thus: MTS cytotoxicity assay, 72 hours drug exposure, U87 brain tumor cells. The note with it: Homo sapiens, U-87 MG, final DMSO 0.5%. Type of assay: cell-based. The method, then:
as §1
U87 is a human primary glioblastoma cell line formally known as U-87 MG. It has epithelial morphology, and was obtained from a patient with stage four cancer. U-87 MG can be obtained from the American Type Culture Collection (ATCC) where it is known by the accession number HTB-14. The entire sequence of the genome of U-87 MG has recently been published in PLoS Genetics, 2010 January; 6(1): e1000832. This is a hypodiploid human cell line with the modal chromosome number of 44 occurring in 48% of cells. The rate of higher ploidy was 5.9%. Twelve markers were common to all cells, including der(1)t(1;3) (p22;q21), der(16)t(1;16) (p22;p12), del(9) (p13) and nine others. The marker der(1) had two copies in most cells. There was only one copy of normal X. N1, N6 and N9 were not found.
as §2, §3

As to `CCCCC(=O)OCC1OC(O)CC(OC(=O)CCCC)C1O` (centres unmarked) [WP1232], the IC50 in the assay on Colo357-FG stood at 490 µM; with U87 it was 250 µM.

With `CCC(CC)C(=O)OCC1OC(O)CC(O)C1O` [WP1319, 6-O-(2-Ethyl)Butyric-2-Deoxy-D-Glucopyranose], the IC50 in the assay with Colo357-FG is 1700 µM; with U87, 3000 µM.

Turning to `CCC(CC)C(=O)OC1CC(O)C(O)C(CO)O1` [WP1474, 1-O-(2-Ethyl)Butyryl-2-Deoxy-β-D-Glucopyranose], the IC50 in the assay on U87 was determined as 2400 µM.

With `CCC(CC)C(=O)OC1CC(O)OC(CO)C1O` [WP1342, 3-O-(2-Ethyl)Butyryl-2-Deoxy-D-Glucopyranose], the IC50 came to 13200 µM in the assay with Colo357-FG and 2400 µM in the assay on U87.

Regarding `CCC(CC)C(=O)OCC1OC(O)CC(O)C1OC(=O)C(CC)CC` [WP1241, 4,6-Di-O-(2-Ethyl)Butyryl-2-Deoxy-α-D-Glucopyranose], the values for the IC50 in the assay with Colo357-FG and in the assay on U87 were 280 µM and 123 µM, respectively.

In the assay on U87, `CCCC(=O)OC[C@H]1OC(OC(=O)CCC)C[C@@H](O)[C@@H]1O` (stereo partly drawn) [WP1217, 1,6-Di-O-Butyryl-2-Deoxy-D-Glucopyranose] returned an IC50 of 2330 µM.

Consider `CCCC(=O)OC[C@H]1OC(O)C[C@@H](O)[C@@H]1OC(=O)CCC` (stereo partly drawn) [WP1214, 4,6-Di-O-Butyryl-2-Deoxy-D-Glucopyranose], for which the IC50 worked out at 440 µM with Colo357-FG and 300 µM in the assay with U87.

For `CCC(=O)OC1CC(O)C(O)C(CO)O1` (centres unmarked) [WP1216], half-maximal inhibition with U87 (IC50) was put at 3580 µM.

For the compound `CCCCC(=O)OC[C@H]1OC(O)C[C@@H](O)[C@@H]1OC(=O)CCCC` (stereo partly drawn) [WP1233, 4,6-Di-O-Valeroyl-2-Deoxy-D-Glucopyranose], the half-inhibitory concentration (IC50) in the assay with Colo357-FG amounted to 230 µM; with U87, 200 µM.

With `CCC(=O)OCC1OC(O)CC(OC(=O)CC)C1O` (centres unmarked) [WP1231], the IC50 in the assay with Colo357-FG is 550 µM; in the assay with U87 it was 380 µM.

For the compound `CCCC(CCC)C(=O)O[C@H]1[C@H](O)CC(O)O[C@@H]1CO` (stereo partly drawn) [WP1513, 4-O-Valproyl-2-Deoxy-D-Glucopyranose], the IC50 in the assay with Colo357-FG and in the assay on U87 was 1200 µM throughout.

In the case of `CCC(CC)C(=O)OCC1OCCC(OC(=O)C(CC)CC)C1O` (centres unmarked) [WP1317], the IC50 in the assay with Colo357-FG and in the assay with U87 was 2100 µM each time.

Regarding `CCCC(CCC)C(=O)O[C@H]1C[C@@H](O)[C@H](O)[C@@H](CO)O1` [WP1490, 1-O-Valproyl-2-Deoxy-β-D-Glucopyranose], the results for the IC50 in the assay with Colo357-FG and in the assay on U87 were 2000 µM and 2400 µM, respectively.

Regarding `O=C(OCC1OC(O)CC(OC(=O)C2CCCC2)C1O)C1CCCC1` (centres unmarked) [WP1343], the IC50 worked out at 750 µM in the assay with Colo357-FG and 109 µM with U87.

With `CCC(CC)C(=O)OCC1OC(O)CC(OC(=O)C(CC)CC)C1O` (centres unmarked) [WP1234], the figures for the IC50 in the assay on Colo357-FG and with U87 were 100 µM and 55 µM, respectively.

Consider `CCC(CC)C(=O)OC1CC(OC(=O)C(CC)CC)C(O)C(CO)O1` [WP1261, 1,3-Di-O-(2-Ethyl)Butyryl-2-Deoxy-β-D-Glucopyranose], for which the IC50 worked out at 340 µM in the assay on Colo357-FG and 741 µM in the assay on U87.

As to `CCC(CC)C(=O)OCC1OCC(O)C(OC(=O)C(CC)CC)C1O` (centres unmarked) [WP1357], the IC50 in the assay with Colo357-FG amounted to 540 µM.

Compound `CCCC(CCC)C(=O)O[C@@H]1CC(O)O[C@H](CO)[C@H]1O` (stereo partly drawn) [WP1512, 3-O-Valproyl-2-Deoxy-D-Glucopyranose] came in with an IC50 in the assay on U87 of 740 µM.

Regarding `CC(C)CC(=O)OCC1OC(O)CC(OC(=O)CC(C)C)C1O` (centres unmarked) [WP1263], the IC50 turned out to be 160 µM with Colo357-FG and 37 µM with U87.

As to `CCC(=O)OCC1OC(O)CC(O)C1OC(=O)CC` (centres unmarked) [WP1242], the IC50 amounted to 6380 µM with Colo357-FG and 490 µM in the assay with U87.

For the compound `CCCC(=O)OCC1OC(O)CC(OC(=O)CCC)C1O` (centres unmarked) [WP1213], the figures for the IC50 in the assay on Colo357-FG and in the assay on U87 were 380 µM and 240 µM, respectively.

The compound `CCCC(CCC)C(=O)OC[C@H]1OC(O)C[C@@H](O)[C@@H]1O` (stereo partly drawn) [WP1491, 6-O-Valproyl-2-Deoxy-D-Glucopyranose] had an IC50 with U87 of 2100 µM.

Source of the values: patent US11925654B2, “Esters of 2-deoxy-monosaccharides with anti proliferative activity” (Board of Regents, The University of Texas System, priority 2013, dated 2024).
